Data from patent EP1075277B2, “METHODS FOR DETECTING AND INHIBITING ANGIOGENESIS” (The Regents of the University of California, priority 1998, dated 2012).
Entries after “also recorded” stand apart in the source; their conditions may differ.

Experiments:
[1] = tested on: HT29 colon carcinoma cells lacking α5β1 expression; test: Chick CAM tumor assay, HT29; type: in vivo; details: antibody 25 µg topically; for effect on tumor size (in words): peptide or small molecule 25 µM intravenously
Experimental: The chick CAM tumor assay was performed by placing ten million tumor cells on the surface of a CAM, and culturing the cells for one week. The resulting tumors were excised and cut into 50 mg fragments. […] Forty-eight hours later, CAM's were excised from the egg and the number of blood vessels entering the tumors were counted (as vessel branch points) .
Data was presented as mean blood vessel number per treatment group (+/- standard error of measurement). Each treatment group incorporated at least ten tumors per experiment. Representative tumors were photographed at 10X magnification. Tumors were excised from the egg and tumor weights were determined for each tumor. Data was presented as mean tumor weight per treatment group (+/- standard error of measurement). Statistical analyses were performed using Student's t-test.
HT29 colon carcinoma cells lacking α5β1 expression were grown on the CAM's of 10-day old embryos. These tumor cells secrete several angiogenic growth factors, including VEGF, TGFα, TGFβ, TNFα, and IL-8 (Anzano et al., Cancer Res. 49:2898-2904 (1989); Varner et. al., supra, 1995; Ellis et al., J. Biol. Chem. 273:1052-1057 (1998)). Integrin α5β1 negative tumor cells were used to distinguish the potential anti-tumor effects from anti-vasculature effects of integrin α5β1 antagonists.

[2] = tested on: integrin α5β1 positive cells, including α5β1 HT29 colon carcinoma cells, CEF's, and HUVEC's; test: Cell adhesion assay on fibronectin, results in words for the α5β1 positive cells together; type: cell-based; details: antibodies 50 µg/ml, cyclic peptides 10 µM, SJ749 0-10 µM
Excerpt: (§1) HT29 integrin α5β1 cells, integrin α5β1 colon carcinoma cells (Varner et al., Mol. Biol. Cell 6:725-740 (1995)), and chick embryo fibroblasts (CEF's) were maintained in DMEM high glucose supplemented with 10% fetal bovine serum (FBS) and gentamycin. Human umbilical vein endothelial cells (HWEC's) were maintained in M199 medium containing sodium bicarbonate, HEPES, heparin, endothelial cell growth supplement, 20% FBS and gentamycin. Culture media and reagents were from Irvine Scientific (Irvine, CA).
(§2) The wells of 48 well culture dishes (Costar, Inc.) were coated with 1 µg/ml vitronectin, 2 µg/ml fibronectin (chick embryo fibroblasts and HUVEC's) or 10 µg/ml fibronectin (HT29-α5^+ cells) for 1 hr at 37°C, then blocked with 2% heat denatured BSA in PBS for 1 hr. […]
(§3) Cells were allowed to adhere to dishes for 20 min at 37°C. […] Crystal violet was extracted by incubation for 15 min in 10% acetic acid and absorbance at 562 nm determined as an indicator of number of cells bound. […]

[3] = tested on: α5β1 HT29 colon carcinoma cells, CEF's, and HUVEC's; test: Cell adhesion assay on vitronectin; type: cell-based; details: 1 µg/ml vitronectin coat
Excerpt: as §1, §2, §3

[4] = tested on: blood vessel branch points in chorioallantoic membranes (CAM's); test: In ovo chick chorioallantoic membrane (CAM) angiogenesis assay; type: in vivo; details: for effect on bFGF-induced angiogenesis (in words): bFGF stimulated CAM
Excerpt: Ten day old embryonated chicken eggs (McIntyre Poultry; Ramona CA) were candled to illuminate blood vessels under the shell and an area with a minimum of small blood vessels is identified. The CAM was dropped away from the eggshell in this area by grinding a small hole in the mineralized shell and applying pressure to the underlying inner shell membrane. This procedure caused an air pocket to shift from the wide end of the egg to the identified area and forcing a circular region of the CAM approximately 2 cm in diameter to drop away from the shell. A window was cut in the egg shell and a cortisone acetate pre-treated filter disc 5 mm in diameter that had been saturated in 1 µg/ml bFGF, VEGF, TNFα, IL-8 (Genzyme, Inc.; Cambridge MA) or saline was placed on the CAM. The window in the shell was sealed with adhesive tape and the egg was incubated for four days.
Anti-fibronectin antibodies (25 µg in 25 µl) also were applied topically to the CAM.
Fibronectin, vitronectin and fibronectin fragments (59 pmol in a final volume of 25 µl) were applied to stimulated or unstimulated CAM's. Peptide or small molecule antagonists of α5β1 (at a final serum concentration of 0-25 µM) also were injected intravenously into the chick circulation 24 hr later. CAM's were harvested on the fourth day of stimulation. Blood vessel branch points in the 5 mm filter disk area were counted at 30 X magnification in a blinded fashion as a size-independent quantitative indicator of vascular sprouting in response to growth factors. Angiogenesis is characterized by the sprouting of new vessels in response to growth factors. Thus, counting of blood vessel branch points is a useful quantitative means of obtaining an angiogenic index (Brooks et al., In "Methods in Molecular Biology" (Humana Press 1999). At least ten embryos were used per treatment group. Each experiment was performed a minimum of three times.
Data was evaluated in terms of average number of blood vessel branch points per treatment group +/- standard error of measurement. Statistical analyses were performed using Student's t-test. […]

Integrin αVβ3 = biological target: T1, Integrin αVβ3 (Homo sapiens, UniProt P05106+P06756); test: Integrin receptor ligand binding assay, αVβ3 / vitronectin; details: biotinylated vitronectin for αVβ3
T1 construct: Integrin αVβ3 and α5β1 receptor purified from human placenta; purchased Chemicon International; host or cells: human placenta (tissue-purified, as the sentence is read)
T1 sequence (P06756 31-889 limits assumed): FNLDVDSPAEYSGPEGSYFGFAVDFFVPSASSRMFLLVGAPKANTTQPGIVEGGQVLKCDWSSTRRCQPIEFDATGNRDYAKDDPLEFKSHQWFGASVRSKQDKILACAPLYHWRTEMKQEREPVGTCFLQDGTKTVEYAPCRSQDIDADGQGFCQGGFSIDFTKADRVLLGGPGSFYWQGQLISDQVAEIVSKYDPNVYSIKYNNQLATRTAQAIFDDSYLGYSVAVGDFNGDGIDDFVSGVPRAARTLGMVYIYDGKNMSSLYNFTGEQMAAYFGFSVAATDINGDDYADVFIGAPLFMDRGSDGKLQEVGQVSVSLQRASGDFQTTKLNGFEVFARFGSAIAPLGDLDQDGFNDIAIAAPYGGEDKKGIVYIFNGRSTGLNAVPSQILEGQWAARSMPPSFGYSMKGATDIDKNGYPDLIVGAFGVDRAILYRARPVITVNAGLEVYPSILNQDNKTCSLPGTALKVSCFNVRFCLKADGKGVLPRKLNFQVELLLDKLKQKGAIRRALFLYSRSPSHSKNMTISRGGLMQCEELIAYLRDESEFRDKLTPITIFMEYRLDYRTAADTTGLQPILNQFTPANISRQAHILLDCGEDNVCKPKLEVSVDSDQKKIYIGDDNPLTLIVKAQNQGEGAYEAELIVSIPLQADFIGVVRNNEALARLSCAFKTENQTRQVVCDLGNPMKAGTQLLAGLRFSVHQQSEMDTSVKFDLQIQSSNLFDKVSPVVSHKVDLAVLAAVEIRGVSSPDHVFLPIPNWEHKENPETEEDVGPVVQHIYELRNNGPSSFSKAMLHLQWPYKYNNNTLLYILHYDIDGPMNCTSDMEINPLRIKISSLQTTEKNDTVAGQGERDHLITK
T1 sequence (P06756 891-1048 partner limits assumed): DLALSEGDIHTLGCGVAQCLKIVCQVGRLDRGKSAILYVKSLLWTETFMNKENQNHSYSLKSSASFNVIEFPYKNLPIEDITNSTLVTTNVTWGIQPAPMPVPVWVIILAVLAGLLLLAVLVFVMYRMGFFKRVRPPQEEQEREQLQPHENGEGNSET
T1 sequence (P05106 27-788): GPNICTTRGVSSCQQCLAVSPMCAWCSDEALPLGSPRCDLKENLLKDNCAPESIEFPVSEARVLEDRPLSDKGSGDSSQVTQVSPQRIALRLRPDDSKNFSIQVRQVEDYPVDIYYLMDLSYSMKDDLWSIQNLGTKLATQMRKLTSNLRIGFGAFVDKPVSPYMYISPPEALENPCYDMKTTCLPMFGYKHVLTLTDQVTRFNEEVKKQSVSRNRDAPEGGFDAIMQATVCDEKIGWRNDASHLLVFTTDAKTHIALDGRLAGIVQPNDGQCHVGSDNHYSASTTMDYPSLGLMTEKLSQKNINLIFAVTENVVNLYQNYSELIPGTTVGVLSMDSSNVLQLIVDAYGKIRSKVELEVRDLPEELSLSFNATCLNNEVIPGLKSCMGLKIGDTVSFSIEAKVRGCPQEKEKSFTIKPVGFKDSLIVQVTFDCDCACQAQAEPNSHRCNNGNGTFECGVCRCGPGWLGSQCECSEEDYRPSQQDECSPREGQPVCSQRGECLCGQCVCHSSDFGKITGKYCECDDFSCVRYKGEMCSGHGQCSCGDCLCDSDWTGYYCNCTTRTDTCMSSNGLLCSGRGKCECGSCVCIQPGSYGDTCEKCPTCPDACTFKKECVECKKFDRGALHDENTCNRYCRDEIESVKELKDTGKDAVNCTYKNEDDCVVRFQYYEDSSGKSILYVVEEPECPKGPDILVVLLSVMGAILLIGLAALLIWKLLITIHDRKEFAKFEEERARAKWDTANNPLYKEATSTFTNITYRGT
Experimental: (§4) Integrin αVβ3 and α5β1 receptor purified from human placenta were obtained from Chemicon International. Platelet integrin αIIbβ3 was purified from platelets according to established procedures. Receptors were coated (100 µl/well) on Costar (3590) high capacity binding plates overnight at 4°C. Coating solution was discarded and plates were washed once with blocking/binding (B/B) buffer (50 mM Tris HCl, pH 7.4, 100 mM NaCl, 2mM CaCl2, 1 mM MgCl2, 1 mM MnCl2 and 1% BSA).
(§5) One hundred ten microliters of B/B buffer was applied for 60 min at RT. Thirty µl of biotinylated extracellular matrix protein ligand (fibronectin for integrin α5β1, vitronectin for integrin αVβ3 and fibrinogen for integrin αIIbβ3) plus 50 µl of either SJ749 in B/B buffer or B/B buffer alone were added to each well, and incubated for 25 min at RT. Plates were washed twice with B/B buffer and incubated 1 hr at RT, with anti-biotin alkaline phosphatase (100 µl/well) in B/B buffer. Finally, plates were washed twice with B/B followed by the addition of 100 µl of phosphatase substrate (1.5 mg/ml). Reaction was stopped by adding 2N NaOH (25 µl/well), and the developed color was read at 405 nm.

[5] = biological target: T2, α5β1 receptor purified from human placenta (Homo sapiens, UniProt P05556+P08648); test: Integrin receptor ligand binding assay, α5β1 / fibronectin; details: biotinylated fibronectin
T2 construct: α5β1 receptor purified from human placenta; purchased Chemicon International; host or cells: human placenta (tissue-purified)
T2 sequence (P08648 42-894 limits assumed): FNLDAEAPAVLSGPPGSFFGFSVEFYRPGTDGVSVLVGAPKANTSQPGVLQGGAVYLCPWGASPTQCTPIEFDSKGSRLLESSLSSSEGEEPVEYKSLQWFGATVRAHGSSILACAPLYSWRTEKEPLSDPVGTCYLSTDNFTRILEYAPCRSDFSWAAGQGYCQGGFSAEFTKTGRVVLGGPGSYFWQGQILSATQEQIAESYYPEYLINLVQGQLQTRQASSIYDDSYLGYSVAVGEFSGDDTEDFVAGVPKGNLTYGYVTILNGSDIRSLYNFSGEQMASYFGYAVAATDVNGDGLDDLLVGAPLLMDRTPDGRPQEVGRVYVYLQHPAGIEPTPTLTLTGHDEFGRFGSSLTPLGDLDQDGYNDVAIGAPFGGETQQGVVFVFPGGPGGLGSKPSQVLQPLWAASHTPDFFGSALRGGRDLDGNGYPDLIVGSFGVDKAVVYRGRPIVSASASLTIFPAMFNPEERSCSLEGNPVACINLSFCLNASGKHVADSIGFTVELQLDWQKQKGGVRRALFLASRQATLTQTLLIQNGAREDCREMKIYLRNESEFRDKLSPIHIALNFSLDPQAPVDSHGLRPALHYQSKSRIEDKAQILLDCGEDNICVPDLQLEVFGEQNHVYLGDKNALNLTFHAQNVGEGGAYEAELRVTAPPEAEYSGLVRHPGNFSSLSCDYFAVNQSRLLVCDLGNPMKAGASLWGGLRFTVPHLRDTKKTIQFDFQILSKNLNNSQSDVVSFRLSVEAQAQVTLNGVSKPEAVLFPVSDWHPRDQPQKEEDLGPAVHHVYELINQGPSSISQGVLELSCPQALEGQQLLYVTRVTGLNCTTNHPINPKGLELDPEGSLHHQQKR
T2 sequence (P08648 895-1049 partner limits assumed): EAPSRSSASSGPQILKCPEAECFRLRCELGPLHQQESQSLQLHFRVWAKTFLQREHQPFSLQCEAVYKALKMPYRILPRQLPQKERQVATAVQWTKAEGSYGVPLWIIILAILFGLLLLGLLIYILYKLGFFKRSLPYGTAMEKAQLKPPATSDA
T2 sequence (P05556 21-798): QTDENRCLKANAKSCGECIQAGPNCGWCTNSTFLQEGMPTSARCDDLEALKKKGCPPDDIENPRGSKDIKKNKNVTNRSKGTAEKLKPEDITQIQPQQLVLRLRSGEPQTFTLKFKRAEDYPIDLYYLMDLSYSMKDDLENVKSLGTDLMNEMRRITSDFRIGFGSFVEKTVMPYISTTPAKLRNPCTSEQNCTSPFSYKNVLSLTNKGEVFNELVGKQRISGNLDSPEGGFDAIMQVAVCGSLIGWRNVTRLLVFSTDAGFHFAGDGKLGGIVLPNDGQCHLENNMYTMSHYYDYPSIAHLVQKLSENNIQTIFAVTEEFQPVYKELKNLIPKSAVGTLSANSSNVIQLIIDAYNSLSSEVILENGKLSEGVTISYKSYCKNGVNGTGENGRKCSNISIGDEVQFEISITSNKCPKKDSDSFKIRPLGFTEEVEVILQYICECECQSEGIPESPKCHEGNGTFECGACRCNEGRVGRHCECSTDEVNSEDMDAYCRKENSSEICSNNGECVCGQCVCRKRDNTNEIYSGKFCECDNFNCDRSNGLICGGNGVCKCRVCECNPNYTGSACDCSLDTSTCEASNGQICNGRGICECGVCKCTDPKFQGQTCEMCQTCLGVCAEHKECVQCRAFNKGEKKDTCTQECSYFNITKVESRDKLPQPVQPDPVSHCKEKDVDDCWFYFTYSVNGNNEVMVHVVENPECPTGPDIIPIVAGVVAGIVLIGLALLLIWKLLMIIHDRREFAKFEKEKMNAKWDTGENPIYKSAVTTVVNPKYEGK
Experimental: as §4, §5

α5^+ HT29 cells = test: Cell adhesion assay on fibronectin, HT29-α5+ cells; type: cell-based; details: Homo sapiens, HT-29, 0-10 µM SJ749, Figure 1, read-out: half maximal inhibitory concentration, adhesion to fibronectin
Excerpt: as §1, §2, §3

HUVEC's = test: Cell migration assay (transwell); type: cell-based, human; details: 4 hr at 37°C
Experimental: The Lower side of 8 µm pore transwell inserts (Costar, Inc.) were coated with 2 µg/ml of fibronectin, collagen (Collaborative Biomedical Products; Bedford MA) or no protein for 1 hr and were blocked with 2% BSA in PBS for 1 hr. The inserts then were placed into 24 well culture dishes containing 500 µl migration buffer in the lower chamber. Twenty-five thousand HUVEC's in 50 µl of migration buffer (HEPES buffered M199 medium containing 1% BSA, 2 mM MgCl2, 2 mM CaCl2 and 0.2 mM MnCl2) were added to the upper chamber of duplicate inserts containing 50 µl of a solution of 50 µg/ml of anti-α5β1 function blocking antibody (NKI-SAM-1, JBS5 or IIA1), 50 µ/ml of anti-α5β1 non-function blocking antibody (HA5 or VC5), or 50 µg/ml of LM609 (an anti-αVβ3 function blocking antibody) in migration buffer, or migration buffer alone.
Cells were allowed to migrate from the upper to the lower chamber for 4 hr at 37°C. Nonmigratory cells were removed from the upper surface by wiping the upper side with an absorbant tip, and cells that had migrated to the lower side of the transwell insert were fixed for 15 min with 3.7% paraformaldehyde in PBS, then stained with a 2% crystal violet solution. After extensive water washing to remove excess crystal violet, the number of cells that had migrated were counted in three representative high power (200X) fields per insert. […]

Row | Compound | effect on tumor size (in words) [1] | effect on cell adhesion to fibronectin (in words) [2] | effect on cell attachment to vitronectin (in words) [3] | effect on bFGF-induced angiogenesis (in words) [4] | tumors smaller than control treated tumors ([1]; peptide or SJ749 25 µM final serum concentration intravenously) [%] | effect on ligand binding to αVβ3 and other integrins (in words) (Integrin αVβ3) | effect on ligand binding to α5β1 (in words) [5] | effect on VEGF-induced angiogenesis (in words) ([4]; VEGF stimulated CAM) | IC50 (α5^+ HT29 cells) [nM] | effect on endothelial cell migration on fibronectin (in words) (HUVEC's) | effect on endothelial cell migration on other matrix proteins, including collagen (in words) (HUVEC's)
1 | CATAERWRC | continued to increase in size | little effect on cell adhesion to either fibronectin or vitronectin | little effect on cell adhesion to either fibronectin or vitronectin | did not inhibit angiogenesis | – | – | – | – | – | – | –
2 | Cc1cc(C)c(S(=O)(=O)N[C@@H](CNC(=O)C2=NOC3(C2)CC(CNc2ccccn2)N(C(=O)OCc2ccccc2)C3)C(=O)O)c(C)c1 (stereo partly drawn) [SJ749] | induced tumor regression on the CAM | blocked the adhesion of these cells to fibronectin in a concentration-dependent manner; also recorded: inhibitory effect | ineffective in blocking cell attachment to vitronectin or other extracellular matrix ligands | blocked bFGF-induced angiogenesis on chick CAM's in a dose-dependent manner when applied either topically or systemically; also recorded: dose dependent inhibitory effect; also recorded: reduced or inhibited angiogenesis in a dose dependent manner | 51 | substantially less effective in blocking ligand binding to αVβ3 and other integrins | selectively inhibited ligand binding to α5β1; also recorded: interfered with α5β1 binding to fibronectin | did not block VEGF angiogenesis | 800 | highly effective in blocking endothelial cell migration on fibronectin | but not on other matrix proteins such as collagen
